In patent US4794115A, “Method of treating hyperlipemia” (Terumo Corporation, priority 1985, dated 1988):

System: Wistar-King male rats
Assay: Serum total cholesterol and triglycerides in cholesterol/cholic acid/corn oil-loaded rats after 7 days oral administration
Type: in vivo
Conditions: once a day for 7 days, 4 hours after last administration, mean of 6 rats; for Serum lipid level, total cholesterol: control 210.0; for Serum lipid level, triglyceride: control 621.7
Procedure: Wistar-King male rats weighing 170 g are orally administered with 5% acacia gum suspension of the compound obtained in Example 1 or 2. Thirty minutes thereafter, a mixture of 10% cholesterol, 1% cholic acid and corn oil is orally administered at a dose of 10 ml/kg.
The above-described administration is made once a day for consecutive 7 days, and 4 hours after the last administration blood is drawn from the abdominal large artery of the rats under ether anesthesia. The blood is centrifuged at 1630×g at 4° C. for 10 min. to isolate serum. Measurements were made on serum levels of total cholesterol and triglycerides by means of serum lipid reagents, V-cholestase (Nissui, trade name for the total cholesterol) and V-Triglase (Nissui, trade name for the triglycerides). Results are shown in Table 1, in which mean values for a group of 6 animals are shown.

Structure (SMILES)	Serum lipid level, total cholesterol (dose 2.4 mM/kg)	Serum lipid level, triglyceride (dose 2.4 mM/kg)	Serum lipid level, total cholesterol (dose 1.2 mM/kg)	Serum lipid level, triglyceride (dose 1.2 mM/kg)
O=C(O)c1cccnc1 [Nicotinic acid, reference compound]	195.4 mg/dL	312.2 mg/dL		
CC/C=C\C/C=C\C/C=C\C/C=C\C/C=C\CCCC(=O)NCCOC(=O)c1cccnc1 [Example 2, N-(5,8,11,14,17-eicosapentaenoyl)-2-aminoethyl nicotinate]	130.4 mg/dL	202.8 mg/dL	194.8 mg/dL	296.4 mg/dL
CC/C=C\C/C=C\C/C=C\CCCCCCCC(=O)NCCOC(=O)c1cccnc1 [Example 1, N-(9,12,15-octadecatrienoyl)-2-aminoethyl nicotinate]	146.6 mg/dL	258.4 mg/dL	198.9 mg/dL	350.1 mg/dL
